Experimental data taken from ChEMBL document CHEMBL1159355, “New dihydrostilbene derivatives from the leaves of Glycyrrhiza glabra and evaluation of their antioxidant activity” (J Nat Prod, 2003).

Assay: Antioxidant activity against linolenic acid oxidation assessed as inhibition rate constant for conjugated diene hydroperoxide formation
Assay type: functional
Work on `CC(C)=CCc1cc(CCc2cc(O)c(CC=C(C)C)c(O)c2)cc(O)c1O` yielded an Activity of 11 ×10⁴ /M/s. Compound `COc1c(O)cc(CCc2cc(O)cc(O)c2)cc1CC=C(C)C` has an Activity of 8 ×10⁴ /M/s. For `CC(C)=CCc1cc(CCc2cc(O)cc(O)c2)cc(O)c1O`, the Activity was 9 ×10⁴ /M/s. Compound `CC(C)=CCc1cc(CCc2cc(O)c(CC=C(C)C)c(O)c2)ccc1O` has an Activity of 7 ×10⁴ /M/s. `CC(C)=CCc1cc(CCc2cc(O)cc(O)c2)ccc1O` gave an Activity of 6 ×10⁴ /M/s.
